Data published in patent US20080076824A1, “Compounds That Inhibit Replication Of Human Immunodeficiency Virus” (priority 2004, published 2008).
In brackets after ≈: the same amount, converted by molar mass. Read-outs that look alike come from different tables or passages of the source.

Experiments:
[1] = system: HIV (SF2 virus); assay: HIV infectivity assay, SF2-infected H9 cells, reverse transcriptase (RT) quantification in supernatant; assay type: cell-based
[2] = Stability of synthetic compounds (no method given); assay type: physicochemical
[3] = system: Herpes simplex virus-1 (KOS); settings: HEL; reduces virus-induced cytopathogenicity by 50%
[4] = system: Herpes simplex virus-2 (G); settings: HEL; reduces virus-induced cytopathogenicity by 50%
[5] = system: Vaccinia virus; settings: HEL; reduces virus-induced cytopathogenicity by 50%
[6] = system: Vesicular stomatitis virus; settings: HEL; reduces virus-induced cytopathogenicity by 50%
[7] = system: Herpes simplex virus-1 TK^− KOS ACV^r; settings: HEL; reduces virus-induced cytopathogenicity by 50%
[8] = system: Coxsackie virus B4; assay: Antiviral activity in HeLa cell cultures, Coxsackie virus B4; assay type: cell-based; settings: Enterovirus B, B4, reduces virus-induced cytopathogenicity by 50%, read-out: Minimum inhibitory concentration Coxsackie virus B4
Procedure: (§1) The cytotoxicity and antiviral activity of various concentrations of G-NH2 and GPG-NH2 were evaluated in cell cultures that were infected with various types of viruses. Conventional host cell culture, viral infection, and infectivity analysis for each different type of cell and virus were followed. Compounds that were known to inhibit replication of the particular types of viruses analyzed were used as controls.

[9] = system: Coxsackie virus B4; assay: Antiviral activity in Vero cell cultures, Coxsackie virus B4; assay type: cell-based; settings: Enterovirus B, B4, reduces virus-induced cytopathogenicity by 50%, read-out: Minimum inhibitory concentration Coxsackie virus B4
Procedure: as §1

[10] = system: Parainfluenza-3 virus; assay: organism not typed; settings: Vero, read-out: Minimum inhibitory concentration Parainfluenza-3 virus
[11] = system: Reovirus-1; assay: organism not typed; settings: Vero, read-out: Minimum inhibitory concentration Reovirus-1
[12] = system: Herpes simplex virus-1 (KOS); assay: microbe, parasite or virus in culture; settings: Human alphaherpesvirus 1, HEL, read-out: Minimum inhibitory concentration Herpes simplex virus-1 (KOS)
[13] = system: Herpes simplex virus-2 (G); assay: microbe, parasite or virus in culture; settings: Human alphaherpesvirus 2, HEL, read-out: Minimum inhibitory concentration Herpes simplex virus-2 (G)
[14] = system: Vaccinia virus; assay: microbe, parasite or virus in culture; settings: Orthopoxvirus vaccinia, HEL, read-out: Minimum inhibitory concentration Vaccinia virus
[15] = system: Vesicular stomatitis virus; assay: microbe, parasite or virus in culture; settings: HEL, read-out: Minimum inhibitory concentration Vesicular stomatitis virus
[16] = system: Herpes simplex virus-1 TK^− KOS ACV^r; assay: microbe, parasite or virus in culture; settings: Human alphaherpesvirus 1, HEL, read-out: Minimum inhibitory concentration Herpes simplex virus-1 TK^− KOS ACV^r
[17] = system: Vesicular stomatitis virus; assay: microbe, parasite or virus in culture; settings: HeLa, read-out: Minimum inhibitory concentration Vesicular stomatitis virus
[18] = system: Respiratory syncytial virus; assay: microbe, parasite or virus in culture; settings: human respiratory syncytial virus, HeLa, read-out: Minimum inhibitory concentration Respiratory syncytial virus
[19] = system: Sindbis virus; assay: microbe, parasite or virus in culture; settings: Vero, read-out: Minimum inhibitory concentration Sindbis virus
[20] = system: Punta Toro virus; assay: microbe, parasite or virus in culture; settings: Vero, read-out: Minimum inhibitory concentration Punta Toro virus
[21] = system: HIV-2 (ROD); assay: microbe, parasite or virus in culture; assay type: cell-based; settings: Human immunodeficiency virus 2, CCRF-CEM; Table 19; read-out: EC50 (CEM) HIV-2 (ROD)
Procedure: Human T-lymphocytic CEM cells (4.5×10^5 cells per ml) were suspended in fresh cell culture medium and infected with HIV-1 (IIIB and NL4.3) or HIV-2 (ROD or EHO) at 100 CCID50 (1 CCID50 being the virus dose infective for 50% of the cell cultures) per ml of cell suspension. Then, 100 μl of the infected cell suspension were transferred to microplate wells, mixed with 100 μl of appropriate (freshly prepared) dilutions of the test compounds (i.e., at final concentrations of […]), and were further incubated at 37° C. After 4 to 5 days, giant cell formation was recorded microscopically in the CEM cell cultures. […] (See Table 1).
(§2) MT-4, C8166 or CEM cells (4 to 5×10^5 cells per ml) were suspended in fresh culture medium (RPMI-1640 medium supplemented with 10% fetal bovine serum (FBS) (BioWittaker Europe, Verviers, Belgium), 2 mM L-glutamine and […] NaHCO3). Subsequently, the cells were infected with HIV-1 (IIIB) or HIV-2(ROD) at ˜100 CCID50 (1 CCID50 being the dose infective for 50% of the cell cultures) per ml of cell suspension. Then, 100 μl of the infected cell suspension were transferred to 96-well microplate wells, mixed with 100 μl of the appropriate (5-fold) dilutions of the test compounds and further incubated at 37° C. After 4 to 5 days, giant cell formation was recorded microscopically in the CEM and C8166 cell cultures. The MT-4 cell cultures were treated with trypan blue and the number of viable cells was determined.

[22] = system: HIV-1 (IIIB); assay: microbe, parasite or virus in culture; settings: Human immunodeficiency virus 1, IIIB
Procedure: as §2

[23] = system: HIV-2(ROD); assay: microbe, parasite or virus in culture
Procedure: as §2

[24] = Cytotoxicity (CC50) in MT-4 cells; assay type: cell-based; settings: human, MT-4 cells
[25] = Cytotoxicity (CC50) in C8166 cells; assay type: cell-based; settings: human, C8166 cells
[26] = system: human PBMC; assay: Mitogenic activity assay, [3H]dThd incorporation in human PBMC with or without PHA; assay type: cell-based; settings: concentrations up to 200 μg/ml, absence of PHA
Procedure: The mitogenic activity assay was conducted as follows. Human PBMC were isolated from buffy coats and brought in RPMI-1640 cell culture medium supplemented with 10% FCS and 2 mM L-glutamine. The cell cultures were exposed to several concentrations of the test compounds for 3 days in the absence or presence of PHA (phytohemagglutinin) (Murex Biotech Ltd., Dartford, UK) at 2 μg/ml. Subsequently, 0.25 μCi [CH3^−3H]dThd was added and, after 20 hr incubation at 37° C., the cells were precipitated in the presence of 10% TCA and the precipitate was washed twice with 10% TCA, twice with 5% TCA and once with 70% ethanol. The precipitate, containing [^3H]DNA, was then examined for radioactivity in a liquid scintillation counter.

[27] = in vitro; settings: human
[28] = system: HIV-1 (IIIB); assay: microbe, parasite or virus in culture; settings: Human immunodeficiency virus 1, IIIB, CCRF-CEM
[29] = C8166, read-out: EC50 (C8166) HIV-1 (IIIB), Table 19
[30] = C8166, read-out: EC50 (C8166) HIV-1 (IIIB), Table 20
[31] = MT4, read-out: EC50 (MT-4) HIV-1 (IIIB)
[32] = MT4, read-out: EC50 (MT-4) HIV-1(IIIB)
[33] = Human immunodeficiency virus 2, C8166, read-out: EC50 (C8166) HIV-2 (ROD), Table 19
[34] = Human immunodeficiency virus 2, C8166, read-out: EC50 (C8166) HIV-2 (ROD), Table 20
[35] = Human immunodeficiency virus 2, MT4, read-out: EC50 (MT-4) HIV-2 (ROD), Table 19
[36] = Human immunodeficiency virus 2, MT4, read-out: EC50 (MT-4) HIV-2 (ROD), Table 20
[37] = read-out: EC50 (CEM) HIV-1 (IIIB), Table 19
[38] = read-out: EC50 (CEM) HIV-1(IIIB), Table 20

Q: For CC(C)C(N)C(=O)NC(O)C(N)=O [Formula Y, N-L-Valyl-α-Hydroxyglycinamide], which “HIV replication at 25 μM” value ([1]; 25 μM) is on record?
A: The value was “neglible levels”.

Q: What about the IC50 ([1]; Human immunodeficiency virus 1, H9, 264 h, RT quantification, day 11, read-out: IC50) of the same compound?
A: The IC50 was roughly 16 µM.

Q: And the stability [2]?
A: Its stability is “stable”.

Q: Which “Minimum inhibitory concentration Herpes simplex virus-1 (KOS)” value [3] does the source give for Nc1nc2c(ncn2COCCO)c(=O)[nH]1 [ACG, reference compound] here?
A: The value was 0.0768 µg/mL (≈ 0.341 µM).

Q: What about the “Minimum inhibitory concentration Herpes simplex virus-2 (G)” value [4] of the same compound?
A: Its value is 0.0768 µg/mL (≈ 0.341 µM).

Q: And the “Minimum inhibitory concentration Vaccinia virus” value [5]?
A: The value was greater than 400 µg/mL.

Q: And the “Minimum inhibitory concentration Vesicular stomatitis virus” value [6]?
A: Its value is greater than 400 µg/mL.

Q: What about the “Minimum inhibitory concentration Herpes simplex virus-1 TK^− KOS ACV^r” value [7] of the same compound?
A: Its value is 9.6 µg/mL (≈ 42.6 µM).

Q: With NC(=O)c1ncn([C@@H]2O[C@H](CO)[C@@H](O)[C@H]2O)n1 [Ribavirin] as the compound, how does the EC50 [8] read?
A: The EC50 was 48 µg/mL (≈ 197 µM).

Q: And the EC50 [9]?
A: The EC50 was greater than 400 µg/mL.

Q: And the EC50 [10]?
A: Its EC50 is 48 µg/mL (≈ 197 µM).

Q: What about the EC50 [11] of the same compound?
A: The EC50 was 16 µg/mL (≈ 65.5 µM).

Q: And the EC50 [12]?
A: The EC50 was 48 µg/mL (≈ 197 µM).

Q: And the EC50 [13]?
A: Its EC50 is greater than 400 µg/mL.

Q: And the EC50 [14]?
A: The EC50 was 240 µg/mL (≈ 983 µM).

Q: And the EC50 [15]?
A: The EC50 was greater than 400 µg/mL.

Q: And the EC50 [16]?
A: The EC50 was 80 µg/mL (≈ 328 µM).

Q: And the EC50 [17]?
A: The EC50 was 9.6 µg/mL (≈ 39.3 µM).

Q: And the EC50 [18]?
A: Its EC50 is 16 µg/mL (≈ 65.5 µM).

Q: And the EC50 [19]?
A: The EC50 was greater than 400 µg/mL.

Q: What about the EC50 [20] of the same compound?
A: Its EC50 is 48 µg/mL (≈ 197 µM).

Q: For Nc1nc2c(ncn2COC(CO)CO)c(=O)[nH]1 [DHPG, reference compound], which “Minimum inhibitory concentration Herpes simplex virus-1 (KOS)” value [3] is on record?
A: The value was 0.0038 µg/mL (≈ 0.0149 µM).

Q: And the “Minimum inhibitory concentration Herpes simplex virus-2 (G)” value [4]?
A: The value was 0.0192 µg/mL (≈ 0.0752 µM).

Q: And the “Minimum inhibitory concentration Vaccinia virus” value [5]?
A: The value was 60 µg/mL (≈ 235 µM).

Q: What about the “Minimum inhibitory concentration Vesicular stomatitis virus” value [6] of the same compound?
A: Its value is greater than 400 µg/mL.

Q: What about the “Minimum inhibitory concentration Herpes simplex virus-1 TK^− KOS ACV^r” value [7] of the same compound?
A: The value was 0.48 µg/mL (≈ 1.88 µM).

Q: For CN1C(=O)C2(CCCCC2)NNC1=S [Formula M], which EC50 [21] is on record?
A: Its EC50 is 48 ± 14 µM.

Q: And the EC50 [22, 29]?
A: Its EC50 is greater than 480 µM.

Q: What about the EC50 [22, 30] of the same compound?
A: The EC50 was greater than 190 µM.

Q: What about the EC50 [22, 31] of the same compound?
A: Its EC50 is greater than 480 µM.

Q: What about the EC50 [22, 32] of the same compound?
A: The EC50 was greater than 900 µM.

Q: What about the EC50 [23, 33] of the same compound?
A: The EC50 was 480 µM.

Q: And the EC50 [23, 34]?
A: Its EC50 is greater than 190 µM.

Q: And the EC50 [23, 35]?
A: The EC50 was greater than 480 µM.

Q: What about the EC50 [23, 36] of the same compound?
A: The EC50 was greater than 900 µM.

Q: And the CC50 [24]?
A: Its CC50 is 455 ± 4.6 µM.

Q: What about the CC50 [25] of the same compound?
A: The CC50 was 488 ± 3.3 µM.

Q: What about the “mitogenic activity against human PBMCs” value [26] of the same compound?
A: The value was “non-mitogenic”.

Q: What about the CC50 at 96 hr [27] of the same compound?
A: The CC50 at 96 hr was no less than 930 µM.

Q: What about the EC50 [28, 37] of the same compound?
A: The EC50 was 97 ± 42 µM.

Q: And the EC50 [28, 38]?
A: The EC50 was 97 ± 42 µM.

Q: For CN1C(=O)C(C)(C)NNC1=S [Formula K], which EC50 [21] is on record?
A: The EC50 was 65 ± 18 µM.

Q: And the EC50 [22, 29]?
A: The EC50 was 346 µM.

Q: What about the EC50 [22, 30] of the same compound?
A: The EC50 was 289 ± 81 µM.

Q: What about the EC50 [22, 31] of the same compound?
A: The EC50 was greater than 580 µM.

Q: What about the EC50 [22, 32] of the same compound?
A: Its EC50 is greater than 1000 µM.

Q: What about the EC50 [23, 33] of the same compound?
A: Its EC50 is greater than 580 µM.

Q: What about the EC50 [23, 34] of the same compound?
A: Its EC50 is greater than 230 µM.

Q: What about the EC50 [23, 35] of the same compound?
A: Its EC50 is greater than 580 µM.

Q: What about the EC50 [23, 36] of the same compound?
A: The EC50 was greater than 1000 µM.

Q: What about the CC50 [24] of the same compound?
A: Its CC50 is 906 ± 179 µM.

Q: And the CC50 [25]?
A: Its CC50 is 896 ± 265 µM.

Q: What about the “mitogenic activity against human PBMCs” value [26] of the same compound?
A: The value was “non-mitogenic”.

Q: What about the CC50 at 96 hr [27] of the same compound?
A: Its CC50 at 96 hr is no less than 1150 µM.

Q: What about the EC50 [28, 37] of the same compound?
A: Its EC50 is 115 µM.

Q: What about the EC50 [28, 38] of the same compound?
A: The EC50 was 115 µM.

Q: With COC(N)C(N)=O (stereo not drawn) [Formula G, alpha-methoxyglycinamide] as the compound, how does the stability [2] read?
A: The stability was “more stable than alpha-hydroxyglycinamide”.
